# Laboratory results: US9063142B1, “Method of predicting sensitivity to prostate cancer therapy” (University of Florida, priority 2004, dated 2015)
# Experiments:
# Type in all cases: cell-based, human
# LNCaP-Rf cells = test: Keratin 18 cleavage, M30 immunostaining; settings: 25 micro-M, 20 hr, FIG. 2B
# Description: After incubation, cells were fixed in ice-cold methanol at […]. for 30 min and incubated with FITC-conjugated M30 antibody for 60 min at room temperature. Cells were mounted with Vectashield containing DAPI.
# cytochrome c = test: Cytochrome c in S100 cytosolic extracts of LNCaP cells, Western blotting; settings: 25 micro-M, 20 hr, FIG. 3B
# Description: Cells were washed in ice-cold PBS, resuspended in an isotonic mitochondrial buffer (210 mM mannitol, 70 mM sucrose, 1 mM EDTA, 10 mM Hepes, pH 7.5, and a protease inhibitor cocktail (Sigma)), and homogenized in a Dounce homogenizer. The heavy membrane fraction was removed by two successive centrifugations, the first at 1000 H g for 10 min and the second at 10,000 H g for 10 min. To obtain the […], the supernatant was centrifuged at 100,000 H g for 90 min.
# PC3 cells = test: DNA fragmentation, Cell Death Detection ELISA; settings: 20 hr, FIG. 5B
# Description: (§1) DNA fragmentation was determined using a photometric enzyme-linked immunoassay (Cell Death Detection ELISA kit, Roche) as specified by the manufacturer. […] Cell lysates were incubated with biotin-conjugated anti-histone antibody and peroxidase-conjugated anti-DNA antibody on streptavidin-coated microtiter plates for 2 hr at room temperature. After incubation with ATBS substrate for development of color, absorbance was read on a spectrophotometer at 405 nm against ABTS solution as the blank. For background determination, lysis buffer was used instead of cell lysate.
# LNCaP cells [1] = test: DNA fragmentation, Cell Death Detection ELISA; settings: co-treated with 25 micro-M roscovitine, 20 hr, FIG. 3A
# Description: as §1
# LNCaP cells [2] = test: PARP cleavage by Western blotting; settings: 30 micro-M pifithrin-alpha 24 hr, then 25 micro-M roscovitine 16 hr, FIG. 5A
# Description: (§2) Cells were rinsed with PBS and lysed in a buffer containing 50 mM Hepes, pH 7.5, 150 mM NaCl, 1 mM EDTA, 1 mM EGTA, 10% glycerol, 0.5% NP-40, 1 mM dithiothreitol, 0.1 mM phenylmethylsulfonyl fluoride, 2.5 micro-g/ml leupeptin, 0.5 mM NaF, and 0.1 mM Na3VO4. After a 30 min incubation, insoluble material was removed by centrifugation. Cell extracts normalized for amount protein were resolved by SDS-PAGE and transferred to nitrocellulose membranes. Blots were blocked in PBS containing 0.05% Tween and 5% instant milk and incubated with antibody in PBS containing 0.05% Tween for 2 hr at room temperature. Proteins recognized by the antibody were detected by enhanced chemiluminescence using a horseradish peroxidase-coupled secondary antibody as specified by the manufacturer (Pierce).
# p53 = p53 abundance in LNCaP cells, Western blotting; settings: 30 micro-M pifithrin-alpha 24 hr, then 25 micro-M roscovitine 16 hr, FIG. 5A
# Description: as §2
compound,measurement,setting,value
"CC[C@H](CO)Nc1nc(NCc2ccccc2)c2ncn(C(C)C)c2n1 [roscovitine, 6-benzylamino-2-[(R)-1-ethyl-2-hydroxye-thylamino]-9-isopropylpurine]",keratin 18 cleavage,LNCaP-Rf cells,keratin 18 cleavage
same,cytochrome c in the cytosol,cytochrome c,present
same,increase in amounts of fragmented DNA,PC3 cells; 25 μM,8 fold
same,increase in amounts of fragmented DNA,PC3 cells; 50 μM,3 fold
z-LEHD-fmk,roscovitine-induced apoptosis (DNA fragmentation) in presence of caspase inhibitor,LNCaP cells [1],did not induce apoptosis
Cc1ccc(C(=O)Cn2c3c(sc2=N)CCCC3)cc1 [pifithrin-α],PARP cleavage in roscovitine-treated cells,LNCaP cells [2],substantially reduced
same,p53 abundance in cells co-treated with roscovitine,p53,did not increase
z-DEVD-fmk,roscovitine-induced apoptosis (DNA fragmentation) in presence of caspase inhibitor,LNCaP cells [1],did not induce apoptosis
